From patent publication US20260038304A1, “METHOD AND SYSTEM FOR DETERMINING EFFICACY OF TREATMENT BY A PRE[…]” (priority 2023, published 2026)
Where a name gives a salt, the structure may show the parent alone.

How the values were obtained:
Assay type in all cases: in vivo
[1] = test system: larval zebrafish; assay: Wide-field behavioral tracking of spontaneous exploration and visually driven swimming after drug bath pretreatment; settings: for effects of pretreatment on swim patterns: fluoxetine 1 μM to 10 μM, fluvoxamine 2.5 μM to 25 μM, 24 hours incubation; for swim patterns and tail motions during visually driven behaviors: fluoxetine- and fluvoxamine-treated fish vs control, FIG. 3K; for spontaneous swimming distance: unstressed fish, ketamine 30 μM bath 30 minutes, fluoxetine 4.6 μM bath 24 hours
Text: Reference is now made to FIG. 1A, which is a schematic diagram depicting an experimental setup, which may be used for evaluating behavior of an animal, according to some embodiments. […] This setup tracks the precise body kinematics of a single fish in an environment that is large (e.g., 90 mm) compared to the length of larval zebrafish (˜4 mm) at a high-resolution (e.g., higher than 1100×1100 pixels) and high-speed (e.g., 290 Hz). Data analysis pipelines further processed the images to identify the fish loci and body postures by using a deep neural network.
Different swim episodes can be visually separated in the depicted trajectories. Fish behavior was recorded at infrared wavelengths for 15 minutes while visual gratings stopped for 10 seconds (spontaneous swimming) and moved for 10 seconds (visually driven behavior) in cycles.
The inventors have used a custom-built zebrafish tracking system consisting of a high-speed camera, a macro lens and associated locking sleeve, an infrared filter for the lens, 880 nm LED illumination, a 100 mm×120 mm cold mirror, and a compact projector.
The inventors have tested the behavior of AB fish at the age of 5 Days Post Fertilization (DPF) on a chemical watch glass (125 mm) whose bottom surface was manually coated with a white spray. The inventors have imaged an area that spanned 90 mm (corresponding to 1100-1200 pixels) for each dimension with a resolution of […] per pixel at 290 Hz. […] Behavioral data presented in this study were acquired using at least three batches, as depicted in FIGS. 1, 2, 3, 4, 1SD, 2H, 2I, 2J, 3L, 4S, for at least two batches (FIG. 3J).
Until 5 DPF, both control and drug-exposed embryos were reared in 90-mm Petri dishes and maintained in a light-cycled incubator at 28.0° C. Media was changed every other day and no food was given before behavioral experiments. All behavioral experiments in this study were performed in E3 medium after washing out pretreated drugs.
Psilocybin solution (Sigma, P-097) was purchased as a stock solution concentration of 1.0 mg/mL in acetonitrile:water (1:1), ampule of 1 mL (3.52 mM). Stock solutions were stored at −80° C. for long-term storage, and in-use aliquots were stored at −20° C. Aliquots were thawed and vortexed immediately before use. Psilocybin was administered by incubating the fish in the psilocybin solution in 6-well plates. Desired concentrations of psilocybin were achieved by adding the stock solution to the E3 medium in which the fish swim. Concentrations ranging from 1 μM to 50 μM were tested in order to optimize the dosage.
The inventors determined that a dose of 2.5 μM for 4 h had the largest effect on spontaneous swimming compared to controls (refer to FIGS. 3E and 3J). Following the 4-hour exposure, fish were double washed in E3 medium, and remained in E3 medium until their behavior was examined. Behaviors were recorded for 15 minutes per fish.
Fluoxetine hydrochloride (Sigma, F918) was prepared as a 1 mg/ml (2.9 mM) stock solution in a conditioned E3 medium for zebrafish embryos. Fluvoxamine (Sigma, F2802) was prepared as a 10 mg/ml (23 mM) stock solution in a conditioned E3 medium. Desired Fluoxetine and Fluvoxamine concentrations were achieved by diluting the stock solution with conditioned E3 medium and storing the aliquots at −20° C. At 5 DPF, the fish were incubated as follows: Fluoxetine and Fluvoxamine were administered by incubating the fish in the solutions in 6-well plates. Desired concentrations of the two types of SSRIs were achieved by adding the stock solutions to the E3 medium in which the fish swim. Concentrations ranging from 1 μM to 10 μM for Fluoxetine and 2.5 μM to 25 μM for Fluvoxamine were tested in order to optimize the dosage. After 24 hours of incubation the fish, after being triple washed, were transferred to a new Petri dish, similar to the one they dwelled in before, containing only E3 medium. Behaviors were recorded at 6 DPF for 15 minutes per fish. […]

[2] = test system: larval zebrafish; assay: Acute cold stress exposure (28° C. to 18° C., 5 minutes) after drug pretreatment, swim pattern analysis; settings: for stress-induced increase in swimming distance: cold shock, fluoxetine 4.6 μM 24 hours before; for stress-induced shift along the ICA2 (IC2) axis, turning/escape behavior: psilocybin 2.5 μM, ketamine 30 μM, fluoxetine 4.6 μM
Text: As known in the art, acute administration of psilocybin has anxiolytic effects in humans. The inventors have thus tested whether acute stress exposure causes changes in fish's swim patterns in our setup and whether psilocybin can prevent such stress-induced behavioral changes. Various environmental stressors have been tested in larval zebrafish that trigger cortisol increase, including hypertonic water, acids, mechanical disturbance, social isolation, and heating or cooling shock.
As shown in FIG. 4I-E, the inventors also tested the effect of hypertonic stress for comparison.
The behavioral effects of other antidepressants was investigated and compared with those of psilocybin. Initially, the effect of ketamine was tested. Ketamine is a fast-acting antidepressant that can also suppress stress-induced behavioral changes in zebrafish. Sub-anesthetic concentration (30 μM) were used and bath application were performed for 30 minutes before the cold shock (FIG. 5A).
The effect of fluoxetine was also tested in the cold shock paradigm, using a concentration of 4.6 μM from previous zebrafish studies, and the effect of bath application was examined for 24 hours before the cold shock (FIG. 5D). […] However, fluoxetine had mixed effects on body kinematics after stress exposure. […] These mixed effects may be due to the induction of distorted swim patterns by fluoxetine that were observed (FIG. 5F, FIG. S3C) but also may reflect its lack of acute anxiolytic effects in humans.
The inventors classified the effects of psilocybin, ketamine and fluoxetine based on two behavioral measures: changes in swimming distances (FIG. 5G) and the ICA analysis of body kinematics (FIG. 5H). In the first type of classification (FIG. 5G), the action of tested drugs was classified based solely on swimming distances. […] Anxiolytic effects were calculated based on how much the drugs could revert the increase of swimming distance induced by stress exposure. In the second type of classification (FIG. 5H), two dimensions identified by the ICA analysis of body kinematics were used. […] Anxiolytic effects were calculated based on how much the drugs could revert the changes along the IC2 axis induced by stress exposure.
Just as osmotic changes to the water cause stress to the fish, changes in water temperature are also known to induce stress. Zebrafish's optimal environment is approximately 28° C., and so it has been shown that a short exposure of 5 minutes to 18° C. leads to increased cortisol levels and anxiety-like behaviors in larval zebrafish. Thus, the inventors utilized this established stress paradigm and exposed the fish to 18° C. E3 medium for 5 minutes. The inventors subsequently returned the fish to 28° C. E3 for a 5-minute recovery before testing (FIG. 4A). 18° C. E3 was achieved by mixing 4° C. E3 with 28° C. E3. Over the course of the 5-minute cold stimulus, the water temperature on average ranged from 18° C. to 20° C. The recovery in 28° C. E3 was done in an incubator, thus the temperature remained stable. Note that these procedures involve multiple occasions of transferring fish and replacing liquid around the fish, which themselves cause stress response due to mechanical disturbances. The effect of such procedural stress was present as the shifts of behavioral states along the IC2 axis in the data presented in FIGS. 4 and S4 compared to other datasets.
(§1) For Independent Component Analysis (ICA) (FIGS. 2D, 3G, 4D, 4K and 4L), The inventors identified ICA weights and normalization factors in the dataset of 14,694 swimming episodes from N=22 fish for the small arena and N=20 fish for the large arena (FIG. 1) by using FastICA function in scikit-learn package (https://scikit-learn.org). The inventors subsequently applied the same ICA weights and normalization factors to other datasets. […]

[3] = test system: larval zebrafish; assay: Ketanserin bath application with or without psilocybin, independent component analysis of swim patterns; settings: Ketanserin 11.25 μM for 5 hours
Procedure: The right panel of FIG. 4M depicts latent feature (e.g., independent component) analysis of swim patterns after the sham treatment, Ketanserin exposure and psilocybin pretreatment before Ketanserin exposure;
Ketanserin has acute anxiogenic effects in adult zebrafish and rodents.
For Ketanserin experiments (FIG. 4M), the inventors performed a bath application of Ketanserin (11.25 μM) for 5 hours before behavioral tests. Psilocybin (2.5 μM) was added to the solution 1 hour after the start of Ketanserin treatment for a total duration of 4 hours before behavioral tests. Ketanserin (Sigma, S006) was prepared as a 0.5 mg/mL stock solution in E3 medium. Stock solutions were stored at −80° C. for long-term storage, and in-use aliquots were stored at −20° C. The desired concentration of Ketanserin was achieved by adding the stock solution to the E3 medium in which the fish swim.
as §1

[4] = cold stress, classification of psilocybin, ketamine and fluoxetine

## COCCCC/C(=N\OCCN)c1ccc(C(F)(F)F)cc1 [fluvoxamine, Fluvoxamine]
[1]
  effects of pretreatment on swim patterns: suppressive effects
  swim patterns and tail motions during visually driven behaviors: decrease amplitude of tail motions

## CNCCC(Oc1ccc(C(F)(F)F)cc1)c1ccccc1 (centres unmarked) [fluoxetine, Fluoxetine hydrochloride]
[2]; ketamine 30 μM 30 minutes
  stress-induced increase in swimming distance: reversed
[2]; [4]
  reversal of the stress-induced increases in swim distances (FIG. 5G): only occurred with ketamine and fluoxetine
[2]; cold stress
  stress-induced shift along the ICA2 (IC2) axis, turning/escape behavior: partially reversed and partially exacerbated
[1]
  effects of pretreatment on swim patterns: suppressive effects
  swim patterns and tail motions during visually driven behaviors: noticeable distortions in the swim patterns and low-frequency tail motions
  spontaneous swimming distance: did not increase
[1]; unstressed fish vs control, swimming distance and IC1 axis classifications consistent (FIG. 5G, 5H)
  stimulatory/suppressive effects on basal behavior: suppressive

## CNC1(c2ccccc2Cl)CCCCC1=O (centres unmarked) [ketamine]
[2]; ketamine 30 μM 30 minutes
  stress-induced increase in swimming distance: reversed
[2]; cold stress, IC2 axis, classification of psilocybin, ketamine and fluoxetine
  reversal of the stress-induced changes in body kinematics (FIG. 5H): only occurred with ketamine and psilocybin
[2]; [4]
  reversal of the stress-induced increases in swim distances (FIG. 5G): only occurred with ketamine and fluoxetine
[2]; cold stress, psilocybin 2.5 μM pretreatment, ketamine 30 μM 30 minutes
  stress-induced changes in swim patterns (zig-zag vs straight) during visually driven swimming: prevented the emergence of zig-zag swim patterns after cold shock and recovered straight swim patterns
[2]; cold stress
  stress-induced shift along the ICA2 (IC2) axis, turning/escape behavior: significantly reversed
[1]
  spontaneous swimming distance: did not increase

## CN(C)CCc1c[nH]c2cccc(OP(=O)(O)O)c12 [psilocybin, Psilocybin]
[1]; tested 1 μM to 50 μM, 30 minutes to 24 hours, optimal duration 4 h
  most effective concentration for enhancing spontaneous exploration: 2.5 µM

## O=C(c1ccc(F)cc1)C1CCN(CCn2c(=O)[nH]c3ccccc3c2=O)CC1 [Ketanserin]
[3]
  shift of behavioral states by bath application: shifted behavioral states similarly to both cold and hypertonic stressors
